In US10082506B2 (Wisconsin Alumni Research Foundation, priority 2014, dated 2018):
Where two headings read alike, the source gives them in different places. Values belong to the compound of their own block, whether it stands above or below them.

Tests used:
[1] = system: UDP-galactopyranose mutase (UGM); conditions: UGM from the species listed; cited from earlier work
hIntL-1 [2] = target: T1, hIntL-1 (Homo sapiens, UniProt Q8WWA0); conditions: reported by Tsuji et al., 2001; read-out: apparent KD / apparent affinity for hIntL-1; cited from earlier work
T1 sequence (Q8WWA0 19-313): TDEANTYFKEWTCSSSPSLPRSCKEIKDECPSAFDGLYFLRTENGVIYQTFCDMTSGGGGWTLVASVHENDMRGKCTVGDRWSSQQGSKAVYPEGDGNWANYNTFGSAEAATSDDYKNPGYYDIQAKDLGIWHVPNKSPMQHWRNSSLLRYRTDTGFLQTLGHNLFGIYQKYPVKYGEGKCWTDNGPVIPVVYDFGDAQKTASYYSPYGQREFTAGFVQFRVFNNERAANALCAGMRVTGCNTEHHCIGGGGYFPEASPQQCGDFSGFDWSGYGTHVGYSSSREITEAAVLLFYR

hIntL-1 [3] = target: T1, hIntL-1; assay: hIntL-1 carbohydrate binding ELISA-like assay (immobilized biotinylated carbohydrates); parameters: made in house; host or cells: HEK 293T (transient transfection, suspension); conditions: for hIntL-1 binding to immobilized carbohydrate in ELISA: immobilized carbohydrate-biotin ligand
Protocol: hIntL-1 Carbohydrate Binding ELISA-like Assay. To fabricate carbohydrate-displaying surfaces, 0.5 μg of streptavidin (Prozyme, cat. no. SA20) was adsorbed onto a Maxisorp (Nunc) flat bottom 96 well plate in PBS. Wells were washed with PBS and then coated with 5 μM of carbohydrate-biotin ligand in PBS for 1 hour at 22° C. Wells were blocked with bovine serum albumin (BSA) in ELISA buffer (20 mM HEPES (7.4) 150 mM NaCl, 10 mM CaCl2, and 0.1% tween-20). Samples containing hIntL-1 were prepared by serial dilution into ELISA buffer+0.1% BSA and added to wells for 2 hours at 22° C. Wells were washed four times with ELISA buffer. Bound hIntL-1 was detected using 0.75 μg/mL of a sheep IgG hIntL-1 antibody (R&D Systems, cat. no. AF4254) in ELISA buffer+0.1% BSA for 2 hours at 22° C. Wells were washed with ELISA buffer. A donkey anti-sheep IgG horseradish peroxidase (HRP) conjugate (Jackson ImmunoResearch Laboratories) was added at a 1:5,000 dilution in ELISA buffer+0.1% BSA for 1 hour at 22° C. Wells were washed and hIntL-1 was detected colorimetrically with addition of 1-Step Ultra TMB-ELISA (Pierce). Once sufficient signal was achieved (typically <2 min.), the reaction was quenched with addition of equal volume 2 M H2SO4. Plates were read at 450 nm on an EL×800 plate reader (Bio-Tek). […] Data were analyzed on Prism6 (GraphPad). Data were fit to the one site-specific binding equation.

hIntL-1 [4] = target: T1, hIntL-1; assay: hIntL-1 surface plasmon resonance on immobilized carbohydrates; type: binding; parameters: made in house; host or cells: HEK 293T (transient transfection, suspension); conditions: concentrations up to 6-fold higher than the β-Galf KD
Protocol: hIntL-1 Surface Plasmon Resonance (SPR). All hIntL-1 SPR was performed on a ProteOn XPR36 (Bio-Rad) at the University of Wisconsin-Madison Department of Biochemistry Biophysics Instrumentation Facility (BIF). To measure hIntL-1 binding, ProteOn NLC sensor chips (Bio-Rad) (NeutrAvidin coated chips) were used to capture carbohydrate-biotin ligand. All experiments presented here were conducted at surface saturated levels of ligand, ˜200 RU. In all experiments, captured biotin served as a control. Samples containing purified hIntL-1 were prepared by serial dilution into hIntL-1 SPR running buffer (20 mM HEPES (7.4) 150 mM NaCl, 1 mM CaCl2, and 0.005% tween-20). Surfaces were regenerated with short injections of 10 mM HCl. All data was interspot corrected and processed using the Bio-Rad ProteOn software package.

Strep-hIntL-1 = target: T2, Strep-hIntL-1 (Homo sapiens, UniProt Q8WWA0); assay: Strep-hIntL-1 binding to S. pneumoniae serotypes; conditions: detected with anti-Strep-tag:Oyster 642 nm antibody
T2 construct: made in house; host or cells: HEK 293T (transient transfection)
T2 sequence (Q8WWA0 19-313): as above

Strep-mIntL-1 = Strep-mIntL-1 (Mus musculus, UniProt O88310); conditions: SPR, referenced to biotin channel
Chain of Strep-mIntL-1 (O88310 19-298): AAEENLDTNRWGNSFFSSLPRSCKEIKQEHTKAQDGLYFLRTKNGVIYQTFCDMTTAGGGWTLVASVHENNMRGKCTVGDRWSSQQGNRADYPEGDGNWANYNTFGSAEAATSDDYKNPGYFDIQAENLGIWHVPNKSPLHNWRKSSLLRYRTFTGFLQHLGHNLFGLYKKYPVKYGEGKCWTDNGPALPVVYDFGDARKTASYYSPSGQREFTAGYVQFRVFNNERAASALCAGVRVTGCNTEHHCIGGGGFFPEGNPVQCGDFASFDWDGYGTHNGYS

hIntL-1 [5] = target: T1, hIntL-1; assay: hIntL-1 on CFG mammalian glycan array v5.1; type: binding; parameters: made in house; host or cells: HEK 293T (transient transfection, suspension); conditions: hIntL-1 50 and 200 μg/ml

SMILES: O=C(O)C(Cc1ccc(I)cc1)Nc1nc(-c2ccc(Cl)c(Cl)c2)cs1 (stereo not drawn) [3-(4-iodophenyl)-2-[4-(3,4-dichlorophenyl)-thiazol-2-ylamino]-propionic acid]
- inhibition of UGM [1]: active against UGM

SMILES: O=C[C@H](O)[C@H](O)[C@H](O)CO [D-ribose]
- Kd (hIntL-1 [2]): < 5 mM

SMILES: O=C(CCCCC1SCC2NC(=O)NC21)NCCOCCOCCOCCOCc1cn(CCCCCCCCCC=CCOC2OC(C(O)CO)C(O)C2O)nn1 (stereo not drawn)
- Kd (hIntL-1 [3]; disulfide-linked trimer, immobilized biotinylated carbohydrate, read-out: apparent avidity (apparent Kd) of trimeric hIntL-1 for immobilized ligand): 85 ± 14 nM
- hIntL-1 binding to immobilized carbohydrate in SPR (hIntL-1 [4]): robust binding

SMILES: O=C(O)CN(CCN(CC(=O)O)CC(=O)O)CC(=O)O [EDTA]
- effect of additive on hIntL-1 binding to S. pneumoniae (Strep-hIntL-1): abrogate binding
- effect of additive on mIntL-1 carbohydrate binding (Strep-mIntL-1): prevents carbohydrate binding
- effect of additive on hIntL-1 binding to β-Galf (hIntL-1 [3]; hIntL-1 conditioned HEK culture media, 25 mM EDTA): completely abolished binding

SMILES: CC(=O)N[C@H]1[C@H](OC[C@H]2OC(O)[C@H](NC(C)=O)[C@@H](O)[C@H]2O)O[C@H](CO)[C@H](O)[C@@H]1O (stereo partly drawn) [GalNAcβ1-6GalNAc]
- hIntL-1 binding signal on CFG mammalian glycan array (hIntL-1 [5]): highest signal

SMILES: OCC(O)CO [glycerol]
- effect of additive on hIntL-1 binding to S. pneumoniae (Strep-hIntL-1): abrogate binding

SMILES: Cc1c(C(=O)c2ccc(Cl)cc2)c(O)nn1-c1ccc(Cl)cc1 [4-chlorophenyl)-[1-(4-chlorophenyl)-3-hydroxy-5-methyl-1H-pyrazol-4-yl]-methanone]
- inhibition of UGM [1]: inhibits UGM

SMILES: CC(=O)N[C@H]1[C@H]([C@H](O)[C@H](O)CO)OC(O)(C(=O)O)C[C@@H]1O (stereo partly drawn) [Neu5Ac, N-acetyl-neuraminic acid]
- hIntL-1 binding signal on CFG mammalian glycan array (hIntL-1 [5]): lack of affinity
- hIntL-1 binding to immobilized carbohydrate in ELISA (hIntL-1 [3]): lack of affinity
- hIntL-1 binding to immobilized carbohydrate in ELISA (hIntL-1 [3]; listed as α-Neu5Ac): does not bind

- hIntL-1 binding to immobilized carbohydrate in SPR (hIntL-1 [4]): small response
SMILES: OC[C@H]1O[C@@H](O)[C@H](O)[C@@H](O)[C@H]1O [β-Galp, β-galactopyranose]

SMILES: CC(=O)N[C@H]1C(O)O[C@H](CO)[C@@H](O[C@@H]2O[C@@H]([C@H](O)CO)[C@H](O)[C@H]2O)[C@@H]1O (stereo partly drawn) [2-acetamido-2-deoxy-4-O-beta-D-galactofuranosyl-D-glucopyranose]
- Kd (hIntL-1 [2]): 9 mM
